Reference: patent publication US8552041B2, “Therapeutic approaches for treating alzheimer disease and related disorders through a modulation of cell stress response” (Pharnext, priority 2008, dated 2013)

B1: BDNF: Brain-derived neurotrophic factor, positive (neuroprotective) control (protein, UniProt P23560 19-247, looked up)
Neurotrophic factor BDNF …: APMKEANIRGQGGLAYPGVRTHGTLESVNGPKAGSRGLTSLADTFEHVIEELLDEDQKVRPNEENNKDADLYTSRVMLSSQVPLEPPLLFLLEEYKNYLDAANMSMRVRRHSDPARRGELSVCDSISEWVTAADKKTAVDMSGGTVTVLEKVPVSKGQLKQYFYETKCNPMGYTKEGCRGIDKRHWNSQCRTTQSYVRALTMDSKKRIGWRFIRIDTSCVCTLTIKRGR

Key:
[1] = tested on: rat primary cortical neuron culture; test: LDH release in Aβ25-35 intoxicated rat primary cortical neuron culture; type: cell-based; settings: Aβ25-35 20 μM, 2 days; drug pre-incubated 1 h; FIG. 2
Protocol: Primary rat cortical neurons are cultured as described by Singer et al., 1999. Briefly pregnant female rats of 15 days gestation are killed by cervical dislocation (Rats Wistar; Janvier) and the foetuses removed from the uterus. The cortex are removed and placed in ice-cold medium of Leibovitz (L15; Invitrogen) containing 1% of Penicillin-Streptomycin (PS; Invitrogen) and 1% of bovine serum albumin (BSA; Sigma). Cortex are dissociated by trypsinisation for 20 min at 37° C. (Trypsin EDTA 1×; Invitrogen) diluted in PBS without calcium and magnesium. The reaction is stopped by the addition of Dulbecco's modified Eagle's medium (DMEM; Invitrogen) containing DNAase I grade II (0.1 mg/ml; Roche Diagnostic) and 10% of foetal calf serum (FCS; Invitrogen). Cells are then mechanically dissociated by 3 passages through a 10 ml pipette. Cells are then centrifuged at 180×g for 10 min at 10° C. The supernatant is discarded and the cells of pellet are re-suspended in a defined culture medium consisting of Neurobasal (Invitrogen) supplemented with B27 (2%; Invitrogen), L-glutamine (0.2 mM; Invitrogen), 1% of PS solution and 10 ng/ml of Brain-derived neurotrophic factor (BDNF, Pan Biotech). Viable cells are counted in a Neubauer cytometer using the trypan blue exclusion test. Cells are seeded at a density of 30 000 cells/well in 96 well-plates (wells are pre-coated with poly-L-lysine (10 ng/ml; Sigma)) and are cultured at 37° C. in a humidified air (95%)/CO2 (5%) atmosphere.
After 6 days of culture, cells are incubated with drugs (5 concentrations). After 1 hour, cells are intoxicated by 20 μM of β-amyloid (25-35; Sigma) in defined medium without BDNF but together with drugs. Cortical neurons are intoxicated for 2 days. BDNF (10 ng/ml) is used as a positive (neuroprotective) control.
After 2 days of culture, the supernatant is collected and analyzed with Cytotoxicity Detection Kit (LDH, Roche Applied Sciences). This colorimetric assay for the quantification of cell death is based on the measurement of lactate dehydrogenase (LDH) activity released from the cytosol of damaged cells into the supernatant. The optic density (DO) is assessed by spectrophotometer at 492 nm wavelength by a multiscan apparatus (Thermo, Ref Ascent). Results are expressed in percentage of cell viability, compared to the negative control (vehicle).
Results presented in FIGS. 1 and 2 are extracted from two independent cultures, 6 wells per condition. All values are expressed as mean±s.e.mean. A bilateral Student's t test analysis is performed on raw data. […]
Rat primary cortical neurons are incubated with drugs one hour before Aβ25-35 20 μM intoxication that lasts 2 days. Two days after this incubation, LDH release in the culture medium is quantified, reflecting the level of cell death.

[2] = tested on: Human Brain Microvascular Endothelial Cells (HBMEC); test: Capillary network length in human Aβ1-42 intoxicated HBMEC on matrigel; type: cell-based; settings: for Effect on intoxication, total length of capillary network in beta-amyloid intoxicated HBMEC cultures: Aβ1-42 2.5 μM, combination versus each drug alone at the same concentrations, FIGS. 5 and 6
Protocol: Human brain microvascular endothelial cerebral cells (HBMEC, ScienCell Ref: 1000, frozen at passage 10) were rapidly thawed in a waterbath at +37° C. The supernatant was immediately put in 9 ml Dulbecco's modified Eagle's medium (DMEM; Pan Biotech ref: P04-03600) containing 10% of foetal calf serum (FCS; GIBCO ref 10270-106). Cell suspension was centrifuged at 180×g for 10 min at +4° C. and the pellets were suspended in CSC serum-free medium (CSC serum free, Cell System, Ref: SF-4Z0-500-R, Batch 51407-4) with 1.6% of Serum free RocketFuel (Cell System, Ref: SF-4Z0-500-R, Batch 54102), 2% of Penicillin 10.000 U/ml and Streptomycin 10 mg/ml (PS; Pan Biotech ref: P06-07100 batch 133080808) and were seeded at the density of 20 000 cells per well in 96 well-plates (matrigel layer biocoat angiogenesis system, BD, Ref 354150, Batch A8662) in a final volume of 100 μl. On matrigel support, endothelial cerebral cells spontaneously started the process of capillary network morphogenesis (54).
Three separate cultures were performed per condition, 6 wells per condition.
Briefly, Aβ1-42 peptide (Bachem, ref: H1368 batch 1010533) was reconstituted in define culture medium at 20 μM (mother solution) and was slowly shacked at +37° C. for 3 days in. The control medium was prepared in the same conditions.
After 3 days, this human amyloid peptide was used on HBMEC at 2.5 μM diluted in control medium (optimal incubation time). The Aβ1-42 peptide was added 2 hours after HBMEC seeding on matrigel for 18 hours incubation.
One hour after HBMEC seeding on matrigel, test compounds and VEGF-165 were solved in culture medium (+0.1% DMSO) and then pre-incubated with HBMEC for 1 hour before the Aβ1-42 application (in a final volume per culture well of 100 μl).
VEGF-165, known to be a pro-angiogenic isoform of VEGF-A, was used for all experiments in this study as reference compound.
The following conditions were assessed: • Negative Control: medium alone+0.1% DMSO • Intoxication: amyloid-β1-42 (2.5 μM) for 18 h • Positive control: VEGF-165 (10 nM) (1 reference compound/culture) 1 hr before the Aβ1-42 (2.5 μM) addition for a 18 h incubation time. • Test compounds: Test compound I hr before the Aβ1-42 (2.5 μM) addition for a 18 h incubation time. Capillary Network Quantification
Per well, 2 pictures with 4× lens were taken using InCell Analyzer™ 1000 (GE Healthcare) in light transmission. All images were taken in the same conditions. Analysis of the angiogenesis networks was done using Developer software (GE Healthcare). The total length of capillary network was assessed.
All values are expressed as mean±s.e.mean of the 3 cultures (n=6 per condition). […] Indeed, the amyloid toxicity was taken as the 100% and the test compound effect was calculated as a % of this amyloid toxicity. […]

NGF-differentiated PC12 = test: MTT viability of NGF-differentiated PC12 cells after Abeta25-35 intoxication; type: cell-based, Rat; settings: Abeta25-35 10 μM, 24 h; drug pre-incubated 1 h; FIG. 1
Protocol: PC12 (Pheochromocytoma Rat, ATCC ref: CRL-1721) cells from [NT] CRL-1721) were rapidly thawed in 37° C. water. The supernatant was immediately put in 9 ml of a “PC12 proliferation medium” containing Dulbecco's modified Eagle's medium DMEM-F12 (Pan Biotech ref: P04-41450) with 15% heat-inactivated horse serum (Invitrogen ref: 16050-130), 2.5% of fetal bovine serum (FBS; Invitrogen ref: 16000-036), 1% of Penicillin 10.000 U/ml and Streptomycin 10 mg/ml (PS; Pan Biotech ref: P06-07100) and 1% de L-glutamine 200 mM (Pan Biotech ref: P04-80100). Cells were centrifuged (800 rounds/min, 4° C. for 5 min) and added in 5 ml “PC12 proliferation medium”, viable cells were counted with a Malassez cell using the neutral red exclusion test (Sigma). Then the cells were seeded at 3·10^4 cells per cm^2 in “PC12 proliferation medium” in 75 cm^2 plastic flasks (Greiner Ref: 658175) precoated with poly-L-lysine (10 μg/ml, Sigma Ref: P2636). Medium was changed every other day. After 3 days of culture, when cells reached 80% of confluence, they were washed in HBSS without calcium and magnesium (Pan Biotech Ref: P06-33500) and incubated in trypsin EDTA, (0.05%, Pan Biotech Ref: P10-023100). The enzymatic reaction was stopped with PC12 proliferation medium added by 0.5 mg/ml of DNAse 1 grade 2 (Pan Biotech Ref: T60-37780100). […]

[3] = tested on: rat primary cortical neuron cells; test: LDH release in human Aβ1-42 intoxicated rat primary cortical neuron culture; type: cell-based; settings: human Aβ1-42 10 μM, 24 h; 1 hr pre-treatment; FIG. 4
Protocol: Primary rat cortical neurons are cultured as described previously.
The control medium was prepared in the same conditions.
Cortical neurons were intoxicated for 24 hours. Three separate cultures were performed per condition, 6 wells per condition.
This colorimetric assay for the quantification of cell toxicity is based on the measurement of lactate dehydrogenase (LDH) activity released from the cytosol of dying cells into the supernatant.
All values are expressed as mean±s.e.mean of the 3 cultures (n=6 per condition).

| Molecule | Prevention of Aβ25-35 intoxication, LDH release in rat primary cortical neurons [1] | Effect on intoxication, total length of capillary network in beta-amyloid intoxicated HBMEC cultures [2] | further results |
| --- | --- | --- | --- |
| Cc1oncc1C(=O)Nc1ccc(C(F)(F)F)cc1 [Leflunomide] | significantly prevented |  |  |
| C[C@@H]1CC(=O)NN=C1c1ccc(NN=C(C#N)C#N)cc1 [Levosimendan] |  | no significant effect |  |
| CCCNC(C)C(=O)Nc1ccccc1C (centres unmarked) [Prilocaln, Prilocaine] |  |  | Prevention of Abeta25-35 intoxication, viability of NGF-differentiated PC12 (MTT) (NGF-differentiated PC12): significantly prevented |
| Cc1noc(NS(=O)(=O)c2ccc(N)cc2)c1C [Sulfisoxazole] | significantly prevented | no significant effect | Prevention of human Aβ1-42 injury in HBMEC (capillary network), single drug ([2]; human Aβ1-42 2.5 μM, 18 h, 1 hr pre-treatment, FIG. 3B): significantly prevented |
| CN1CC(=O)N2[C@H](c3ccc4c(c3)OCO4)c3[nH]c4ccccc4c3C[C@@H]2C1=O [Tadalafil] |  |  | LDH release compared to amyloid intoxication [3]: −57% |
| CN(C/C=C/C#CC(C)(C)C)Cc1cccc2ccccc12 [Terbinafine] |  | no significant effect |  |
| NS(=O)(=O)Cc1noc2ccccc12 [Zonisamide] | significantly prevented |  |  |
| B1 | efficiently prevented |  | LDH release compared to amyloid intoxication [3]: −95% |
